Test system: HEK293 cells stably transduced with a CMV-lox-GFP-stop-lox-RFP construct
Assay: Endocytosis inhibition in LGSL-RFP HEK cells
Format: cell-based
Details: for effect on in vitro endocytosis and functional Cre mRNA delivery of ATL1 and ATL2: LGSL-RFP cells
Experimental: For experiments shown in FIG. 1, cells were incubated with endocytosis inhibitors 1 hour prior to incubation with pooled LNPs against clathrin-mediated endocytosis (chlorpromazine, 100 μM, Alfa Aesar), caveolae-mediated endocytosis (genistein, 100 μM, TCI America), and macropinocytosis (5-(N-Ethyl-N-isopropyl) Amiloride, EIPA, 50 μM, Toronto Research Chemicals).
To determine whether FIND could simultaneously measure delivery mediated by many nanoparticles, 54 chemically distinct LNPs were formulated (Table 5, FIGS. 4J-4O); each carried Cre mRNA and a unique DNA barcode. The LNPs were administered to HEK cells in a 6 well plate using an mRNA dose of 10, 100, or 1000 ng/well, and a mRNA: DNA barcode mass ratio of 10:1. A dose-dependent increase in RFP^+ cells was observed, with over 80% of the cells RFP^+ at 1000 ng 72 hours after transfection (FIG. 1G). Barcodes were deep sequenced at all 3 doses, reasoning that LNPs which delivered barcodes at the lowest dose (4% RFP^+ cells) would also deliver LNPs at the middle dose (20% RFP^+ cells). There was a strong relationship between normalized delivery at these 2 doses (FIG. 1H). Cells treated with 1000 ng mRNA were also sequenced. As expected, the relationship between 1000 ng and either 10 or 100 ng weakened, since at this dose, nearly all the cells (>80% were RFP^+), leading to system saturation (FIG. 4P-4Q). Finally, it was evaluated whether the number of RFP^+ cells decreased when cells were pre-treated with Chlorpromazine, Genistein, or Ethylisopropyl amiloride (EIPA), which inhibit clathrin-, caveolin-, and macropinocytosis-mediated endocytosis, respectively. Compared to cells that were not treated with inhibitors, the number of RFP^+ cells decreased by 40-60%, recapitulating previous LNP results (Sahay, Querbes et al. 2013, Dahlman, Barnes et al. 2014, Wittrup, Ai et al. 2015) (FIG. 1I).
Like all high throughput screens, LNPs identified by FIND need to be validated. ATL1 and ATL2 (FIG. 3A, 3B-3E) were selected. […] (FIG. 6C-6F).

SMILES	effect on in vitro endocytosis and functional Cre mRNA delivery of ATL1 and ATL2	inhibition at 100 µM (Homo sapiens, HEK293, pre-treatment 1 hour before pooled 54 LNPs (100 ng total mRNA), chlorpromazine 100 μM, genistein 100 μM, EIPA 50 μM, read-out: decrease in number of RFP+ cells compared to cells not treated with inhibitors) [%]
O=c1c(-c2ccc(O)cc2)coc2cc(O)cc(O)c12 [Genistein, genistein]	inhibited	–
CN(C)CCCN1c2ccccc2Sc2ccc(Cl)cc21 [Chlorpromazine, chlorpromazine]	inhibited	40 to 60
CCN(c1nc(N)c(C(=O)N=C(N)N)nc1Cl)C(C)C [EIPA, 5-(N-Ethyl-N-isopropyl) Amiloride]	only impacted LNP uptake	–

From US12201696B2, “Multiplexed analysis of materials for tissue delivery” (Georgia Tech Research Corporation, priority 2017, dated 2025)
